Assay results reported in patent US10072021B2, “Compound for inhibiting binding between DX2 protein and P14/ARF protein, and pharmaceutical composition for treating or preventing cancer disease containing same as effective ingredient” (PUSAN NATIONAL UNIVERSITY INDUSTRY-UNIVERSITY COOPERATION …, priority 2014, dated 2018).
Entries after “also recorded” stand apart in the source; their conditions may differ.

How the values were obtained:
[1] = molecular target: T1, DX2-p14/ARF binding (His-DX2, GST-p14/ARF) (Homo sapiens, UniProt Q13155); test: ELISA-based screening for inhibitors of DX2-p14/ARF binding; conditions: ELISA values at 450 nm
T1 construct: made in house; host or cells: E. coli BL21(DE3) (stated for the GST fusion)
T1 sequence (Q13155 1-251 isoform Q13155-2): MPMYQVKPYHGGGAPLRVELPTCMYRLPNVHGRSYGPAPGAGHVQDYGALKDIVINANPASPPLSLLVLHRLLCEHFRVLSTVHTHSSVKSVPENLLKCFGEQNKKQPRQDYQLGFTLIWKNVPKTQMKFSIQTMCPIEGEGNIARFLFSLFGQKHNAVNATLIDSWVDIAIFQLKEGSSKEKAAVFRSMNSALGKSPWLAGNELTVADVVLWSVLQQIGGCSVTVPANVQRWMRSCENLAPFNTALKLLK
Protocol: In detail, referring to drawings, the compound according to an embodiment of the present invention which is a specific binding inhibitor of DX2 and p14/ARF was screened by using an ELISA-based screening method of FIG. 1. Based on the screening reaction system, increases in ELISA values with increasing concentrations of p14/ARF were measured. […] Thus, by using the ELISA-based screening method, compounds that are specific binding inhibitors of DX2 and p14/ARF were primarily screened.
That is, 0.5% His-DX2 recombinant proteins were immobilized on a 96-well plate with paraformaldehyde (PFA). After performing drying and cleaning processes, GST-p14/ARF proteins were allowed to react with a random compound (final concentration: 0.1 mM). After 1 hour, the plate was washed using TBS-T, and then, incubated with anti-GST antibodies (1:10,000, 30 minutes) and anti-mouse-IgG-HRP (1:50,000, 1 hour). After performing a washing process twice, the plate was incubated with 3,3′,5,5′-tetramethylbenzidine (TMB) solution (Calbiochem) and stop solution (1N H2SO4) for a reaction. Afterwards, by using an ELISA reader, values were measured at 450 nm, thereby selecting candidate drugs as DX2-p14/ARF binding inhibitors. […]

DX2-p14/ARF binding = molecular target: T2, DX2-p14/ARF binding (Homo sapiens, UniProt Q13155); test: GST pull-down assay of DX2-p14/ARF binding; conditions: FIG. 2A, 3A, 3D, 3E
T2 construct: made in house; host or cells: E. coli BL21(DE3) for GST-p14/ARF; DX2 from 'cell lysate or recombinant protein'
T2 sequence (Q13155 1-251 isoform Q13155-2): T1 sequence (Q13155 1-251 isoform Q13155-2)
Source text: (§1) Through GST pull-down assays, more specific binding inhibitors were selected among the previously screened candidate drugs as DX2-p14/ARF binding inhibitors. That is, a p14/ARF fragment (full-length) was ligated into EcoRI and Hind II sites of pGEX-TEV vector, which is a modified vector by adding a TEV protease cleavage site to pGEX-4T1. The recombinant proteins were then expressed in E. coli strain BL21(DE3) as GST-fusion proteins. The proteins were purified by glutathione affinity chromatography.
(§2) To address direct binding between the two proteins, agarose-bead conjugated GST (negative control) or GST-target protein was incubated with cell lysate or recombinant protein in radioimmunoprecipitation assay (RIPA) buffer (NaCl, 25 mM Tris-Cl, 1% NP-40, 1% sodium deoxycholate, 0.1% SDS, protease inhibitor mixture) for 1 hour at a temperature of 4° C. for a reaction.

p53-p14/ARF interaction = molecular target: T3, p53-p14/ARF interaction (Homo sapiens, UniProt P04637+Q8N726); test: GST pull-down assay, selectivity: p53-p14/ARF interaction; assay type: binding; conditions: FIG. 3D, 3E
T3 construct: a p14/ARF fragment (full-length) was ligated into EcoRI and Hind II sites of pGEX-TEV vector; made in house; host or cells: E. coli BL21(DE3) for GST-p14/ARF
T3 sequence (Q8N726 whole entry, the tested form may be a part): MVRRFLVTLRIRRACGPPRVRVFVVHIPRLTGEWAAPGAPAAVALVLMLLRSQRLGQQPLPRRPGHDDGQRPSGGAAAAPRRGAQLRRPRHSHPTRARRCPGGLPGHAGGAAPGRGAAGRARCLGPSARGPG
T3 sequence (P04637 whole entry, the tested form may be a part): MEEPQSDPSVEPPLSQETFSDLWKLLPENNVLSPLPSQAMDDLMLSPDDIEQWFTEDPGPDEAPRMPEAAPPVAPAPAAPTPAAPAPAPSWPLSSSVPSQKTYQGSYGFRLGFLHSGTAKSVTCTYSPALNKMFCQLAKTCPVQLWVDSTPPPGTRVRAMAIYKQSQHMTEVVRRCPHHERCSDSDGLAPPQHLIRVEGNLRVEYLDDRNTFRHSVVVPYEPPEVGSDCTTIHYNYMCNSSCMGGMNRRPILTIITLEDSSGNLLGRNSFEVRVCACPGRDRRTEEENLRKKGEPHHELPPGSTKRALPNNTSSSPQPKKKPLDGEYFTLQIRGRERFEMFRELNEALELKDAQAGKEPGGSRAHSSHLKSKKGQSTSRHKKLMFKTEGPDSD
Source text: as §1, §2

DX2 and p14/ARF = test: Localization and levels of DX2 and p14/ARF in cells after treatment (western blot); assay type: cell-based, human
H446 xenograft = system: H446 xenograft
Protocol: DK (5 month-old, N=6) mice were administered with carrier, SLCB050 (5 or 10 mg/kg), Adriamycin (1, 2.5, or 5 mg/kg), and a combination of SLCB050 and Adriamycin by intraperitoneal (i.p.) injection. After termination of the experiment of each group, mice were dissected and isolated lung tissues. For xenograft, 1×10^7 H446 cells (ATCC) were seeded in nude ice. After 4 weeks, tumor bearing mice were injected with Adriamycin, […], or a combination thereof for 6 weeks. Every weeks, tumor volume and body weight were measured.

lung tumors of DK mice = test: In vivo anticancer effect in DK mice (lung tumors)
Protocol: All experimental procedures using laboratory animals were approved by the animal care committee of Pusan National University. DX2 (C57/BL6) and K-RasLA2 (C57/BL6) mice were obtained from Dr. Kim, Sung-Hoon and Professor. Choi, Kang-Ryeol (Yonsei University), respectively, and double Tg mice were obtained by cross-breeding of DX2 and K-RasLA2 mice. Before experiment, all mice were maintained under temperature- and light-controlled conditions (20-23° C., 12 h/12 h light/dark cycle), and provided autoclaved food and water.
Every weeks, tumor volume and body weight were measured.
After dissection of mice, tissues were fixed using 10% formalin (in PBS) for 24 hours, and embedded in paraffin blocks according to a basic tissue processing procedure. For histological analysis, embedded tissues were cut for […] by Leica microtome (Wetzlar, Germany) and transferred onto adhesive-coated slides (Marienfeld laboratory glassware, Germany). After deparaffin and rehydration, sections were then stained with H&E for routine examination.
For IHC staining, rehydrated tissue sections were incubated with antibodies to Ki-67 (Abcam, ab15580), pan-keratin (Sigma, C2931), pro-surfactant C (Millipore, AB3786), NSE (DAKO, IS612), and HER2/Neu (DAKO, A0458) for a reaction. Antigen retrieval was performed using 10 mM sodium citrate (pH 6.0) twice at a temperature of 95° C. for 10 minutes each, and endogenous peroxidase activity was blocked with 3% […] for 10 min. Then, the slides were dehydrated following a standard procedure and sealed with cover glass using mounting solution. TUNEL reaction was done as described in the manual for In Situ Cell Death Detection Kit, POD (Hoffmann-La Roche Ltd, Basel, Swizerland).
To evaluate tumor incidence, lung tissues of each mouse was fixed and embedded in paraffin. 5 sections from each mouse were examined by 3 independent investigator, who counted tumor. In addition, tumor area was calculated by tumor occupied area in total lung area using photoshop software.

## CC1(C)Oc2cc3oc(=O)ccc3cc2C[C@@H]1OC(=O)/C=C/c1ccco1 [SLCB050, (7S)-(+)-3-(2-Furanyl)-acrylic acid, 8,8-dimethyl-2-oxo-6,7-dihydro-2H,8H-pyrano[3,2-g]chromen-7-yl-ester]
[1]
  ELISA reaction of DX2-p14/ARF binding: considerably reduced
DX2-p14/ARF binding
  inhibitory effect on DX2-p14/ARF binding: completely blocked; also recorded: showed inhibitory effects on DX2-p14/ARF binding
p53-p14/ARF interaction
  effect on interaction of p53-p14/ARF: did not affect the interaction of p53-p14/ARF
DX2 and p14/ARF; 10 μM, 6 hours, nucleoplasm, FIG. 4B
  localization of DX2 and p14/ARF: DX2 was decreased and p14/ARF was increased in the nucleoplasm
DX2 and p14/ARF; NSCLC cell line H1299 and SCLC cell line H69, FIG. 4C
  DX2 and p14/ARF levels: decreases DX2, but increases p14/ARF
DX2 and p14/ARF; p14/ARF-deficient H322 cells (H322, H460, A549), FIG. 4D
  DX2 levels in p14/ARF-deficient cells: reduction of DX2; also recorded: DX2 levels decreased considerably
H446 xenograft; SLCB050 10 mg/kg with low dose Adriamycin 2.5 mg/kg, FIG. 9B
  tumor growth, combination: more obvious anticancer effect; also recorded: obviously suppressed tumor growth
H446 xenograft; SLCB050 10 mg/kg, three times/week, FIG. 9B
  tumor volume, SLCB050 alone: moderately suppressed
H446 xenograft; single agents, FIG. 9A
  response of H446 xenograft model: partially responded
Lung tumors of DK mice; DK mice, SLCB050 10 mg/kg and Adriamycin 2.5 mg/kg
  weight loss, combination: without significant weight loss
Lung tumors of DK mice; DK mice, SLCB050 10 mg/kg and Adriamycin 2.5 mg/kg, i.p., FIG. 10B, 10C
  tumor progression, combination: significantly suppressed tumor progression; also recorded: induced tumor regression
Lung tumors of DK mice; DK mice, SLCB050 treatment, FIG. 12A
  DX2 level in vivo (western blot): reduction of DX2
Lung tumors of DK mice; DK mice, combinational treatment with Adriamycin and SLCB050, FIG. 10C
  tumor volumes, combination: reduced tumor volumes
Lung tumors of DK mice; DK mice, combinational treatment with Adriamycin and SLCB050, FIG. 11
  SCLC regions in lung tissue (H-E staining), combination: more obviously erased
Lung tumors of DK mice; lung tissues of DK mice treated with Adriamycin and SLCB050 in combination, FIG. 12B, 12C
  apoptotic tumor cells (TUNEL staining): obviously increased apoptosis tumer cells
